In patent publication US10730840B2, “Substituted tetrahydroisoquinoline ethylbenzamide anti-cancer agents” (Florida A&M University, priority 2017, dated 2020):
≈ marks a conversion by molar mass, not a printed value. Entries after “also recorded” stand apart in the source; their conditions may differ. Where a name gives a salt, the structure may show the parent alone. Read-outs that look alike come from different tables or passages of the source.

What was measured:
[1] = tested on: MCF-7 (ER positive breast cancer cell line); assay: CellTiter-Glo antiproliferative activity, MCF-7 cell line; type: cell-based, human; conditions: for IC50: Homo sapiens, MCF7; for antiproliferative activity against MCF-7 cell line in words: based on IC50 value
From the text: (§1) Numerous substituted THIQs were systematically synthesized employing molecular design and structure activity relationship studies (Suresh et al., (2014) Lett. Drug Design & Discov. 11: 428-436; Gangapuram et al., (2014) J. Cancer Sci. Ther. 6: 161-169). The compounds' cytotoxic effects on MCF-7 (estrogen receptor positive breast cancer) cell lines, MDA-MB-231 (estrogen receptor negative breast cancer) cell lines and Ishikawa cell lines using CellTiter-Glo (CTG) luminescent cell viability essay were studied. The tests were done on different concentrations of the compounds ranging from 0.01 to 100,000 nM on 5000 MCF-7 cells/well, on 5000 MDA-MB-231 cells/well and on 5000 Ishikawa cells/well. Drug exposed cells were incubated at 37° C. for three days followed by CTG assay. Then IC50 values were generated from Graph Pad Prism 4.
(§2) Chemistry: Several substituted tetrahydroisoquinolines 2d-2m, 3h, 3k, 3l, and 4a-4f were prepared according to three different procedures as shown in Schemes 1, 2 and 3 (FIGS. 2-4). […] The aminating agent 10 was prepared using a reported procedure (Tamura et al., (1972) J. Org. Chem. 40: 4133-4135). The amino salts of ring substituted 2-aminoisoquinolinium mesitylenesulfonates of general structure 11 used in the present study were prepared by the reaction of substituted isoquinolines and the aminating agent 10 as previously reported (Gangapuram et al., (2014) J. Cancer Sci. Ther. 6: 161-169). […] The aminating agent 13 was prepared using a reported procedure (Legault & Charette (2003) J. Org. Chem. 68: 7119-7122). The amino salts of ring substituted 2-aminoisoquinolinium compounds of general structure 14 were obtained with the reaction of the substituted isoquinolines and the aminating agent 13 in CH3CN heated at 50° C. for 24 hours. Without further purification, the salts were used to prepare the N-ylides by reaction with substituted acyl/sulfonyl chlorides. […] N-Oxidation of commercially available ring substituted THIQs followed by the reduction of the NO group using standard zinc/acetic acid led to the synthesis of N-amino THIQs.
(§3) The antiproliferative activities of substituted tetrahydroisoquinolines 2a-2m, 3a-3l and 4a-4f were evaluated according to the procedure reported previously (Crouch et al., (1993) J. Immunol. Methods 160: 81-88).
(§4) Human MCF-7 and MDA-MB-231 breast cancer cell lines were purchased from the NCI. The human Ishikawa endometrial cancer cell line was purchased from Sigma Aldrich. All three cell lines were cultured in phenol red-free RPMI-1640 (Hyclone) (500 mL) supplemented with L-glutamine-dipeptide (Hyclone) (5 mL), and 10% fetal bovine serum (Atlanta Biologicals) (50 mL).
(§5) The cell lines were cultured and treated with compounds under study including the standard TAM ranging from 0.01 nM to 100,000 nM concentration in the presence of 10 nM estradiol using the previous reported method (Suresh et al., (2014) Lett. Drug Des. Discov. 11: 428-436).
(§6) The amount of ATP is determined using a system based on luciferase and D-luciferin resulting in light generation.

[2] = tested on: MDA-MB-231 (ER negative breast carcinoma cell line); assay: CellTiter-Glo antiproliferative activity, MDA-MB-231 cell line; type: cell-based, human; conditions: 72 h exposure; for IC50: Homo sapiens, MDA-MB-231
From the text: as §1, §2, §3, §4, §5

[3] = tested on: Ishikawa (endometrial) cancer cell line; assay: CellTiter-Glo antiproliferative activity, Ishikawa cell line; type: cell-based, human; conditions: 72 h exposure; for IC50: Homo sapiens, Ishikawa
From the text: as §1, with “4. […]” for “4.”
as §3, §4, §5, §6

[4] = tested on: MCF-7, MDA-MB-231, and Ishikawa cell lines; assay: Antiproliferative activity, summary statements over the three cell lines; type: cell-based, human; conditions: MCF-7, MDA-MB-231 and Ishikawa cell lines together
From the text: as §1, §2, §3, §4, §5

[5] = Table 1, 72 h exposure, in the presence of 10 nM estradiol, read-out: IC50 MCF-7
[6] = Table 1, in the presence of 10 nM estradiol
[7] = Table 1, in the presence of 10 nM estradiol, read-out: IC50 Ishikawa
[8] = Table 1, 72 h exposure, in the presence of 10 nM estradiol
[9] = in the presence of 10 nM estradiol
[10] = in the presence of 10 nM estradiol, read-out: IC50 against Ishikawa cell line
[11] = Table 2, 72 h exposure, estradiol added, read-out: IC50 MCF-7
[12] = Table 2, estradiol added, read-out: IC50 Ishikawa

Row | melting point | IC50 [1, 5] | IC50 [2, 6] | IC50 [3, 7] | IC50 MCF-7 [1, 8] | IC50 MDA-MB-231 [2, 6] | IC50 Ishikawa [3, 6] | SMILES | other results
1 | – | – | – | – | >29.64 µg/mL | >29.64 µg/mL | 22.38 µg/mL | CCc1ccc(C(=O)NN2CCc3cc(O)ccc3C2)cc1 [Compound 2h, 4-Ethyl-N-(6-hydroxy-3,4-dihydroisoquinolin-2(1H)-yl) benzamide] | –
2 | – | 15.2 µg/mL | 16.1 µg/mL | 8.64 µg/mL | – | – | – | CCc1ccc(C(=O)NN2CCc3cc(C(=O)OC)ccc3C2)cc1 [Compound 3h, methyl-2-(4-ethylbenzamido)-1,2,3,4-tetrahydroisoquinoline-6-carboxylate] | –
3 | 251 to 253 °C | > 32.4 µg/mL | > 32.4 µg/mL | > 32.4 µg/mL | – | – | – | CCc1ccc(C(=O)NN2CCc3cc(C(=O)O)ccc3C2)cc1 [Compound 3k, 2-(4-Ethylbenzamido)-1,2,3,4-tetrahydroisoquinoline-6-carboxylic acid] | –
4 | 162 to 167 °C | 26.4 µg/mL | > 30.5 µg/mL | > 30.5 µg/mL | – | – | – | CCc1ccccc1C(=O)NN1CCc2ccc(C#N)cc2C1 [Compound 4a, N-(7-Cyano-3,4-dihydroisoquinolin-2(1H)-yl)-2-ethylbenzamide] | –
5 | – | 1.28 µg/mL | 1.76 µg/mL | 0.9 µg/mL | – | – | – | CCc1ccc(C(=O)NN2CCc3ccc(C#N)cc3C2)cc1 [Compound 4d, N-(7-Cyano-3,4-dihydroisoquinolin-2(1H)-yl)-4-ethylbenzamide] | IC50 ([1]; 72 h exposure, in the presence of 10 nM estradiol, read-out: IC50 against MCF-7 cell line): 1.28 µg/mL; antiproliferative activity against MCF-7 cell line in words [1]: moderate activity; IC50 [3, 10]: < 7.87 µg/mL
6 | 205 to 206 °C | 2.49 µg/mL | 3.74 µg/mL | 0.98 µg/mL | – | – | – | CCc1ccc(C(=O)NN2CCc3cc(Cl)ccc3C2)cc1 [Compound 4e, N-(6-Chloro-3,4-dihydroisoquinolin-2(1H)-yl)-4-ethylbenzamide] | IC50 [3, 10]: < 7.87 µg/mL

Further lines, the compound ahead of its results:

Row | SMILES | melting point | IC50 [1, 5] | IC50 [2, 6] | IC50 [3, 7] | IC50 MCF-7 [1, 8] | IC50 MDA-MB-231 [2, 6] | IC50 Ishikawa [3, 6] | other results
7 | COc1ccc(C(=O)NN2CCc3ccc(O)cc3C2)cc1 [Compound 2d, N-(7-hydroxy-3,4-dihydroisoquinolin-2(1H)-yl)-4-methoxybenzamide] | 192.5 to 194.3 °C | > 29.8 µg/mL | 25.2 µg/mL | 0.99 µg/mL | – | – | – | –
8 | COc1cccc(C(=O)NN2CCc3ccc(O)cc3C2)c1 [Compound 2e, N-(7-hydroxy-3,4-dihydroisoquinolin-2(1H)-yl)-3-methoxybenzamide] | 190.5 to 192.3 °C | 1.86 µg/mL | 1.71 µg/mL | 0.31 µg/mL | – | – | – | –
9 | COc1ccccc1C(=O)NN1CCc2ccc(O)cc2C1 [Compound 2f, N-(7-hydroxy-3,4-dihydroisoquinolin-2(1H)-yl)-2-methoxybenzamide] | 197.3 to 199.4 °C | > 29.8 µg/mL | > 29.8 µg/mL | > 29.8 µg/mL | – | – | – | –
10 | CCc1ccccc1C(=O)NN1CCc2ccc(O)cc2C1 [Compound 2g, 2-Ethyl-N-(7-hydroxy-3,4-dihydroisoquinolin-2(1H)-yl) benzamide] | – | – | – | – | >29.64 µg/mL | >29.64 µg/mL | >29.64 µg/mL | –
11 | CCc1ccc(C(=O)NN2CCc3cccc(O)c3C2)cc1 [Compound 2i, 4-Ethyl-N-(8-hydroxy-3,4-dihydroisoquinolin-2(1H)-yl) benzamide] | – | – | – | – | – | – | – | IC50 against MCF-7 cell line ([1]; 72 h exposure, in the presence of 10 nM estradiol): 0.61 µg/mL; selectivity towards ER(+) MCF-7 compared to ER(−) MDA-MB-231 cell lines ([1]; MCF-7 versus MDA-MB-231 IC50): significant selectivity; also recorded: reasonable selectivity; antiproliferative activity against MCF-7 cell line in words [1]: very active; antiproliferative activity in words [4]: active; IC50 against MDA-MB-231 cell line [2, 9]: 1.36 µg/mL; IC50 against Ishikawa cell line [3, 9]: 0.09 µg/mL
12 | CCc1ccc(C(=O)NN2CCc3cccc(N)c3C2)cc1 [Compound 2k, N-(8-amino-3,4-dihydroisoquinolin-2(1H)-yl)-4-ethylbenzamide] | 223.5 to 224.8 °C | 2.23 µg/mL | 16.8 µg/mL | 0.6 µg/mL | – | – | – | –
13 | Nc1ccc(C(=O)NN2CCc3ccc(Br)cc3C2)cc1 [Compound 2l, 4-Amino-N-(7-bromo-3,4-dihydroisoquinolin-2(1H)-yl) benzamide] | – | – | – | – | 2.80 µg/mL | 9.86 µg/mL | 1.09 µg/mL | –
14 | COc1cccc2c1CCN(NC(=O)c1ccc(C(C)(C)C)cc1)C2 [Compound 3a, 4-(tert-butyl)-N-(5-Methoxy-3,4-dihydroisoquinolin-2(1H)-yl) benzamide] | – | – | – | – | >33.84 µg/mL | >33.84 µg/mL | >33.84 µg/mL | –
15 | CC(C)(C)c1ccc(C(=O)NN2CCc3c(O)cccc3C2)cc1 [Compound 3b, 4-(tert-butyl)-N-(5-Hydroxy-3,4-dihydroisoquinolin-2(1H)-yl) benzamide] | – | – | – | – | 7.92 µg/mL | 10.25 µg/mL | 10.96 µg/mL | –
16 | CC(C)(C)c1ccc(C(=O)NN2CCc3c(cccc3OCc3ccccc3)C2)cc1 [Compound 3e, N-(5-(Benzyloxy)-3,4-dihydroisoquinolin-2(1H)-yl)-4-(tertbutyl) benzamide] | – | – | – | – | >41.45 µg/mL | >41.45 µg/mL | >41.45 µg/mL | –
17 | CCc1ccc(C(=O)NN2CCc3c(O)cccc3C2)cc1 [Compound 3f, 4-Ethyl-N-(5-hydroxy-3,4-dihydroisoquinolin-2(1H)-yl) benzamide] | – | – | – | – | 18.61 µg/mL | 15.61 µg/mL | 9.93 µg/mL | –
18 | CCc1ccc(C(=O)NN2CCc3cc(OC)c(OC)cc3C2)cc1 [Compound 4b, N-(6,7-Dimethoxy-3,4-dihydroisoquinolin-2(1H)-yl)-4-ethylbenzamide] | 224 to 225 °C | > 34.1 µg/mL | > 34.1 µg/mL | > 34.1 µg/mL | – | – | – | –
19 | O=C(c1ccc(OCCN2CCCCC2)cc1)c1c(-c2ccc(O)cc2)sc2cc(O)ccc12 [Raloxifene-Hydrochloride, reference compound] | – | 0.98 µg/mL | 11.2 µg/mL | 10.5 µg/mL | – | – | – | –
20 | CCc1ccc(C(=O)NN2CCc3ccc(Cl)cc3C2)cc1 [Redda-EVK-I-132, N-(7-Chloro-3,4-dihydroisoquinolin-2(1H)-yl)-4-ethylbenzamide] | – | – | – | – | – | – | – | IC50 [1, 11]: 0.678 µg/mL (≈ 2.15 µM); IC50 ([2]; Table 2, estradiol added): 0.826 µg/mL (≈ 2.62 µM); IC50 [3, 12]: 0.318 µg/mL (≈ 1.01 µM)
21 | CCc1ccc(C(=O)NN2CCc3ccccc3C2c2ccco2)cc1 (stereo not drawn) [Redda-EVK-I-135, 4-Ethyl-N-(1-(furan-2-yl)-3,4-dihydroisoquinolin-2(1H)-yl)benzamide] | – | – | – | – | – | – | – | IC50 [1, 11]: 2.39 µg/mL (≈ 6.9 µM); IC50 ([2]; Table 2, estradiol added): 3.88 µg/mL (≈ 11.2 µM); IC50 [3, 12]: 1.71 µg/mL (≈ 4.94 µM)
22 | CCc1ccc(C(=O)NN2CCc3ccc(OS(N)(=O)=O)cc3C2)cc1 [Redda-GM-4-171, 2-(4-Ethylbenzamido)-1,2,3,4-tetrahydroisoquinolin-7-yl-sulfamate] | – | – | – | – | – | – | – | IC50 [1, 11]: 2.14 µg/mL (≈ 5.7 µM); IC50 ([2]; Table 2, estradiol added): 2.53 µg/mL (≈ 6.74 µM); IC50 [3, 12]: 0.12 µg/mL (≈ 0.32 µM)
